Data reported in ChEMBL document CHEMBL1201862, “PubChem BioAssay data set” (2004).
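1) Cells in 96-well plates. 2) Compound, 48 h, 5 concentrations. 3) Linear interpolation between surrounding doses. 4) Unreached endpoint = highest concentration. At the GI50, growth is halved.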 Calls of active or inactive are those of the source. No stated cut-off is given here; in the data, active = GI50 up to about 1.1 µM and inactive = higher.

Assays:
Assay in all cases: NCI anticancer screen, dose series, 48 h
[1] = tested on: BT-549
[2] = tested on: COLO 205
[3] = tested on: CCRF-CEM
[4] = tested on: U-251
[5] = tested on: MDA-N
[6] = tested on: T47D
[7] = tested on: NCI-H522
[8] = tested on: HOP-92
[9] = tested on: HOP-62
[10] = tested on: MDA-MB-231
[11] = tested on: HCT-15
[12] = tested on: HL-60
[13] = tested on: OVCAR-5
[14] = tested on: IGROV-1
[15] = tested on: Hs-578T
[16] = tested on: Malme-3M
[17] = tested on: SK-MEL-2
[18] = tested on: ACHN
[19] = tested on: SNB-19
[20] = tested on: LOX IMVI

In the case of CC(=O)NC(CS/N=N/c1[nH]cnc1C(N)=O)C(=O)O (centres undefined), the GI50 [1] is reported as 53 µM (inactive), the GI50 [2] is reported as 7.24 µM (inactive) and the GI50 [3] is reported as 2.14 µM (inactive). For the same molecule, the GI50 [4] was > 64.9 µM (inactive), the GI50 [5] was 5.05 µM (inactive) and the GI50 [6] was > 24.1 µM (inactive). The GI50 [7] was 14.9 µM (inactive), the GI50 [8] was 6.93 µM (inactive) and the GI50 [9] was 35.9 µM (inactive). The GI50 [10] was 2.2 µM (inactive), the GI50 [11] was 19.5 µM and the GI50 [12] was 1.16 µM (inactive). For the same molecule, the GI50 [13] was > 76.2 µM (inactive), the GI50 [14] was 5.81 µM (inactive) and the GI50 [15] was 16.2 µM (inactive). The GI50 [16] was 2.16 µM (inactive), the GI50 [17] was 2.42 µM (inactive) and the GI50 [18] was 6.27 µM (inactive). For the same molecule, the GI50 [19] was > 100 µM (inactive) and the GI50 [20] was 0.343 µM (active).
With [N-]=[N+]=CC(=O)CCC(N)C(=O)O (centres undefined) the GI50 [1] was 34.6 µM (inactive), the GI50 [2] was 1.15 µM (inactive) and the GI50 [3] was 0.676 µM (active). The GI50 [4] was 1.55 µM (inactive), the GI50 [5] was 1.32 µM (inactive) and the GI50 [6] was 18.7 µM (inactive). The GI50 [7] was 3.01 µM (inactive), the GI50 [8] was 13.8 µM (inactive) and the GI50 [9] was 1.31 µM (inactive). For the same molecule, the GI50 [10] was 8.63 µM (inactive), the GI50 [11] was 0.815 µM and the GI50 [12] was 1.72 µM (inactive). The GI50 [13] was 4.86 µM (inactive), the GI50 [14] was 1.92 µM (inactive) and the GI50 [15] was 62.2 µM (inactive). The GI50 [16] was 6.38 µM (inactive), the GI50 [17] was 53.7 µM (inactive) and the GI50 [18] was 1.06 µM (active). The GI50 [19] was 8.71 µM (inactive) and the GI50 [20] was 0.689 µM (active).
With CO[C@H]1[C@@H](O)[C@@H](O)O[C@@H](O[C@H]2CC[C@@]3(C)[C@H](CC[C@@H]4[C@@H]3[C@H](O)C[C@]3(C)[C@@H](C5=CC(=O)OC5)CC[C@]43O)C2)[C@@H]1O the GI50 [1] was 0.151 µM (active), the GI50 [2] was 0.441 µM (active) and the GI50 [3] was 0.23 µM (active). The GI50 [4] was 0.305 µM (active), the GI50 [5] was 0.243 µM (active) and the GI50 [6] was 0.362 µM (active). For the same molecule, the GI50 [7] was 0.0239 µM (active), the GI50 [8] was 0.531 µM (active) and the GI50 [9] was 0.124 µM (active). For the same molecule, the GI50 [10] was 0.649 µM (active), the GI50 [11] was 0.281 µM and the GI50 [12] was 0.191 µM (active). For the same molecule, the GI50 [13] was 0.601 µM (active), the GI50 [14] was 0.301 µM (active) and the GI50 [15] was 0.407 µM (active). For the same molecule, the GI50 [16] was 0.198 µM (active), the GI50 [17] was 0.299 µM (active) and the GI50 [18] was 0.0471 µM (active). For the same molecule, the GI50 [19] was 0.692 µM (active) and the GI50 [20] was 0.193 µM (active).
With CC(C)(C)C(=O)O[C@H]1C=C[C@@H](O)[C@@H]2[C@H]1[C@@H]1C=C[C@H]2C1 the GI50 [1] was 3.87 µM (inactive), the GI50 [2] was 6.03 µM (inactive) and the GI50 [3] was 9.35 µM (inactive). The GI50 [4] was 28.8 µM (inactive), the GI50 [5] was 19.3 µM (inactive) and the GI50 [6] was 24.8 µM (inactive). For the same molecule, the GI50 [7] was 17.4 µM (inactive), the GI50 [8] was 22.2 µM (inactive) and the GI50 [10] was 19.2 µM (inactive). The GI50 [11] was 20 µM, the GI50 [12] was 4.15 µM (inactive) and the GI50 [13] was 1.96 µM (inactive). The GI50 [14] was 3.06 µM (inactive), the GI50 [15] was > 100 µM (inactive) and the GI50 [16] was > 10 µM (inactive). The GI50 [17] was 13 µM (inactive), the GI50 [18] was 45.4 µM (inactive) and the GI50 [19] was 70 µM (inactive). The GI50 [20] was 21.4 µM (inactive).
For C=C(C)C(=O)OC1C[C@H](COC(C)=O)C2CC=C(C)C2C2OC(=O)C(=C)[C@H]12 (some centres undefined), the GI50 [1] was 4.13 µM (inactive), the GI50 [2] was 2.54 µM (inactive) and the GI50 [3] was 1.64 µM (inactive). The GI50 [4] was 8.67 µM (inactive), the GI50 [5] was 3.66 µM (inactive) and the GI50 [6] was 4.98 µM (inactive). The GI50 [7] was 1.45 µM (inactive), the GI50 [8] was 1.92 µM (inactive) and the GI50 [9] was 13.3 µM (inactive). The GI50 [10] was 4.3 µM (inactive), the GI50 [11] was 1.91 µM and the GI50 [12] was 0.815 µM (active). For the same molecule, the GI50 [13] was 9.77 µM (inactive), the GI50 [14] was 11.7 µM (inactive) and the GI50 [15] was 4.06 µM (inactive). The GI50 [16] was 1.55 µM (inactive), the GI50 [17] was 2.82 µM (inactive) and the GI50 [18] was 3.69 µM (inactive). For the same molecule, the GI50 [19] was 16.9 µM (inactive) and the GI50 [20] was 1.85 µM (inactive).
In the case of O=C1Sc2ccc(Br)cc2C(=O)Sc2ccccc21, the GI50 [1] is reported as 12.5 µM (inactive), the GI50 [2] is reported as 13.2 µM (inactive) and the GI50 [3] is reported as 2.48 µM (inactive). For the same molecule, the GI50 [4] was 14.5 µM (inactive), the GI50 [5] was 8.17 µM (inactive) and the GI50 [6] was 9.29 µM (inactive). The GI50 [7] was 4.84 µM (inactive), the GI50 [8] was 13.5 µM (inactive) and the GI50 [9] was 12.6 µM (inactive). The GI50 [10] was 16.5 µM (inactive), the GI50 [11] was 15.7 µM and the GI50 [12] was 2.42 µM (inactive). For the same molecule, the GI50 [13] was 17.9 µM (inactive), the GI50 [14] was 14.2 µM (inactive) and the GI50 [15] was 11.4 µM (inactive). The GI50 [16] was 2.24 µM (inactive), the GI50 [17] was 18.8 µM (inactive) and the GI50 [18] was 16.4 µM (inactive). For the same molecule, the GI50 [19] was 13.9 µM (inactive) and the GI50 [20] was 9.1 µM (inactive).
For O=C1Cc2c(-c3ccccc3)cc(-c3ccc(Cl)cc3)nc2-c2ccccc2N1, the GI50 [1] was 17.1 µM (inactive), the GI50 [2] was 2.96 µM (inactive) and the GI50 [3] was 5.97 µM (inactive). For the same molecule, the GI50 [4] was 1.72 µM (inactive), the GI50 [5] was 6.9 µM (inactive) and the GI50 [6] was 3.23 µM (inactive). For the same molecule, the GI50 [7] was 2.18 µM (inactive), the GI50 [8] was 2.3 µM (inactive) and the GI50 [9] was 3.66 µM (inactive). For the same molecule, the GI50 [10] was 4.13 µM (inactive), the GI50 [11] was 6.68 µM and the GI50 [12] was 14.5 µM (inactive). The GI50 [13] was 11 µM (inactive), the GI50 [14] was 4.62 µM (inactive) and the GI50 [15] was 2.88 µM (inactive). The GI50 [16] was 5.02 µM (inactive), the GI50 [17] was 17.1 µM (inactive) and the GI50 [18] was 2.4 µM (inactive). For the same molecule, the GI50 [19] was 1.94 µM (inactive) and the GI50 [20] was 6.22 µM (inactive).
